In ChEMBL document CHEMBL1147616, “DNA binding of a short lexitropsin” (Bioorg Med Chem Lett, 2004):

Tested on: Nucleic Acid
Experiment: Compound was evaluated for its binding activity to the DNA AT-rich sites
Format: nucleic-acid assay

Binding activity	Structure (SMILES)
3 µM	CN(C)CCCNC(=O)c1cc(NC(=O)c2cc(NC(=O)c3cc(NC=O)cn3C)cn2C)cn1C
0.3 µM	CC(C)n1cc(NC(=O)c2cc(NC=O)cn2C)cc1C(=O)Nc1cc(C(=O)NCCCN(C)C)n(C)c1
